Assay [1] concerns Human C3-DEPOSITION SERUM. The assay is described as follows: C3 deposition assay, human serum on mannan-coated plates. It is filed as biochemical. The settings on record: Average IC50, read-out: Human C3-DEPOSITION SERUM IC50. Put shortly: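 Plates coated overnight at 4° C with S. cerevisiae mannan (10 μg/mL, pH 9.6), blocked with 1% BSA in TBS 2 h at 37° C; washes in TBS/0.05% Tween 20/5 mM CaCl2. Antibodies diluted in wash buffer with 0.5% BSA. Colorimetric read-out at 450 nm.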

In assay [2] the target is rat MASP2 (Rattus norvegicus (Rat), UniProt Q9JJS8). The assay is described as follows: Biochemical rat MASP2 assay (FRET substrate). Particulars: Average IC50; recombinant rat MASP2; read-out: rat MASP2 IC50. The text has this:
The MASP1 or MASP2 expression vectors were transfected into the HEK293 (ATCC No. CRL-1573) cell line using Lipofectamine LTX® Reagent (Thermo-Fischer), as described by the manufacturer. […] The MASP1 and M[…] were purified from the conditioned media by affinity chromatography on Ni-NTA Superflow resin (Qiagen) as described by the manufacturer.

For assay [3], the target named is rat MASP1 (Rattus norvegicus (Rat), UniProt Q8CHN8). The assay is described as follows: Biochemical rat MASP1 assay (FRET substrate). Particulars: Average IC50; recombinant rat MASP1; read-out: rat MASP1 IC50. An excerpt:
A truncated cDNA sequence of rat MASP1encoding the fragment corresponding to the amino acids 302-704 with a C-terminal His Tag and N-terminal Ig-kappa secretion signal (SEQ ID No: 4) was subcloned into the mammalian expression vector pcDNA3.1 (Invitrogen).
The MASP1 or MASP2 expression vectors were transfected into the HEK293 (ATCC No. CRL-1573) cell line using Lipofectamine LTX® Reagent (Thermo-Fischer), as described by the manufacturer. The mature form of the recombinant rat MASP1 and MASP2 proteases were secreted into the culture medium. The MASP1 and MASP2 proteins were purified from the conditioned media by affinity chromatography on Ni-NTA Superflow resin (Qiagen) as described by the manufacturer.
4.2 Biochemical Rat MASP1 Assay.
Recombinant rat MASP1 enzyme produced in the HEK 293 cells was diluted in the reaction buffer (50 mM HEPES pH 8,0; 100 mM NaCl; 0,01% CHAPS; 0.5 mM Gluthathione) to the concentration of 4 nM and 25 μl was transferred into each single well of 384-well white microtiter plate (Greiner Bio One 781075). 1 μl of the inhibitor compound solution (dissolved in DMSO, at the corresponding concentration) or pure DMSO as a control was added to the same wells. The enzymatic reaction was initiated by addition of 25 μl of 40 μM solution of the FRET substrate Dabcyl-[…]-Glu(Edans)-NH2; (Dabcyl-4-((4-(dimethylamino)phenyl)azo)benzoic acid; Edans-5-[(2-Aminoethyl) amino]naphthalene-1-sulfonyl; custom synthesis by Jerini Peptide Technologies, Berlin) in the reaction buffer. The microtiter plate was incubated for 60-120 min at the temperature of 32 C. The increase of fluorescence intensity was measured in appropriate fluorescence plate reader (e.g. TECAN Ultra) using excitation wavelength of 340 nm and emission wavelength of 490 nm. IC50 values were calculated from percentage of inhibition of rat […] activity as a function of test compound concentration.

Assay [4] deals with human MASP1 (Homo sapiens (Human), UniProt P48740). The assay is described as follows: Biochemical human MASP1 assay (FRET substrate). The settings on record: Average IC50; recombinant human MASP1; read-out: human MASP1 IC50. Put shortly: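 IC50 derived from % inhibition versus compound concentration, with fluorescence increase read at 320/420 nm after 60-120 min at 32 C. Enzyme: HEK293-secreted, His-tagged human MASP1 fragment 297-699 at 20 nM in HEPES pH 8,0 buffer with NaCl, CHAPS, glutathione; substrate ABZ-peptide-Lys(Dnp)-NH2 added as 20 μM solution.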

The target of assay [5] is human MASP2 (Homo sapiens (Human), UniProt O00187). The assay is described as follows: Biochemical human MASP2 assay (FRET substrate). Particulars: Average IC50; recombinant human MASP2; read-out: human MASP2 IC50. Put shortly: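 IC50 came from % inhibition across compound concentrations, with fluorescence (ex 340 nm, em 490 nm) read after 60-120 min at 32 C. Substrate was a DABCYL FRET peptide, added as a 60 μM solution, cleaved by HEK293-expressed, Ni-NTA-purified mature recombinant human MASP2.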

Where a SMILES comes first, the peptide text is derived from it. Bridges are numbered along the chain shown (N, C = ends). [ ]: non-standard residue; d: D form. Oic = O=C(O)[C@@H]1C[C@@H]2CCCC[C@@H]2N1; tBuAla = CC(C)(C)C[C@H](N)C(=O)O; Pen = CC(C)(S)[C@H](N)C(=O)O; Dap = NC[C@H](N)C(=O)O; Ahx = NCCCCCC(=O)O

human MASP1, sequence (P48740 other isoform, or with tags, fused parts or gaps): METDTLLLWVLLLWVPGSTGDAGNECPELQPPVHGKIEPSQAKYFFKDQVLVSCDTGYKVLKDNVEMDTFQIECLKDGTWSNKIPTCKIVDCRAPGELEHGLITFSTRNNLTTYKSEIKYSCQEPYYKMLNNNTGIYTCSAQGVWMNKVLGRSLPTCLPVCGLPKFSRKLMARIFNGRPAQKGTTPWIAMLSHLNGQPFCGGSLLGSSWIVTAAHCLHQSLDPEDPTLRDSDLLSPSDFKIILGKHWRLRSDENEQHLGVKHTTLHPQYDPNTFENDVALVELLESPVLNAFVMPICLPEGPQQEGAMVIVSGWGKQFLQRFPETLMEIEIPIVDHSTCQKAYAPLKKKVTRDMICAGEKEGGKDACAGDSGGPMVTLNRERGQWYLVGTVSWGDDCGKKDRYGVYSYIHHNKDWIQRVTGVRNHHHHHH
rat MASP2, sequence (Q9JJS8 other isoform, or with tags, fused parts or gaps): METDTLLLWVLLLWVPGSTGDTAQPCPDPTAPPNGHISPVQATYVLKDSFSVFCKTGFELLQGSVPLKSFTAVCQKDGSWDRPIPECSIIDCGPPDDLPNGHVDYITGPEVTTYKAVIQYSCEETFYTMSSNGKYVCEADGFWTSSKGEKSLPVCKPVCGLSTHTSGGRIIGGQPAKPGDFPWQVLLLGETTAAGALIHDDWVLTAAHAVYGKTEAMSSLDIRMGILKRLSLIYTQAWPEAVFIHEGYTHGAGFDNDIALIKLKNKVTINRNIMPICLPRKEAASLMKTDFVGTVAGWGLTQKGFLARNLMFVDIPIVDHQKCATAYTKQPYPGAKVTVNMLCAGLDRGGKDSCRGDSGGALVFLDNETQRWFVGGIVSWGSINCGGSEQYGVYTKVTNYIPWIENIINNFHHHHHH
rat MASP1, sequence (Q8CHN8 other isoform, or with tags, fused parts or gaps): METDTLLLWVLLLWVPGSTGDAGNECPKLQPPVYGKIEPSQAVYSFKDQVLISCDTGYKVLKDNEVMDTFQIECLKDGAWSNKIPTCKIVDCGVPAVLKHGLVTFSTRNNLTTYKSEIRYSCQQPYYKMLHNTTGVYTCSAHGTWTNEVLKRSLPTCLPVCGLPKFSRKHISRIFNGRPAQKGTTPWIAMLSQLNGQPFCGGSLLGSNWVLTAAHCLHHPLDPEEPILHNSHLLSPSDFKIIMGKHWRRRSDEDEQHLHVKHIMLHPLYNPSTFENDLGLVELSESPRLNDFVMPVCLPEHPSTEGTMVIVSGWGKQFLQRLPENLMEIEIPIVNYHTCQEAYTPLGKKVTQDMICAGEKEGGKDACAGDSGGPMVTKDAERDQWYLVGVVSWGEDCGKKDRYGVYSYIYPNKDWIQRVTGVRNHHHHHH
human MASP2, sequence (O00187 other isoform, or with tags, fused parts or gaps): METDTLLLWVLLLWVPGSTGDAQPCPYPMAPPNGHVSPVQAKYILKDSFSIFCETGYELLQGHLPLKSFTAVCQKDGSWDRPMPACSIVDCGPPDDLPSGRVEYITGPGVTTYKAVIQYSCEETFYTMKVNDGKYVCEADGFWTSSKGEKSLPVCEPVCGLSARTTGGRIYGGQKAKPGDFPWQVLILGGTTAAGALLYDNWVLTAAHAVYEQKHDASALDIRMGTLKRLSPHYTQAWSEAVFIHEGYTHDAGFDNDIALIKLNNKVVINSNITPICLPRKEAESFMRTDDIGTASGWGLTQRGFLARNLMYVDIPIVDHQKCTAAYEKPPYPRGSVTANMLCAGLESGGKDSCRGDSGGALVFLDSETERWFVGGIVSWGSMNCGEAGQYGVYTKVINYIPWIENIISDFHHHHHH

The term IC50 denotes the midpoint of a concentration-inhibition curve. With `CC[C@H](C)[C@@H]1NC(=O)[C@@H]2CCCN2C(=O)[C@@H]2CCCN2C(=O)[C@H](CC(C)(C)C)NC(=O)[C@H](CO)NC(=O)[C@H](CCCNC(=N)N)NC(=O)[C@H](CO)NC(=O)[C@@H]2CSSC(C)(C)[C@H](NC1=O)C(=O)N[C@@H]([C@@H](C)CC)C(=O)N1CCC[C@H]1C(=O)N1CCC[C@H]1C(=O)N[C@@H]([C@@H](C)CC)C(=O)N2` [Example 58, N-{3-[(6S,9S,12S,15S,18R,21S,23aS,28aS,34S,37R,40S,42aS,47aS)-21,34,40-tri[(2S)-butan-2-yl]-6-(2,2-dimethylpropyl)-9,15-bis(hydroxymethyl)-48,48-dimethyl-5,8,11,14,17,20,23,28,33,36,39,42,47-tridecaoxotetratetracontahydro-1H,5H,28H-18,37-(methanodithiomethano)tetrapyrrolo[1,2-a:1′,2′-d:1″,2″-p:1′″,2′″-s][1,4,7,10,13,16,19,22,25,28,31,34,37]tridecaazacyclononatriacontin-12-yl]propyl}guanidine] (cyclo(CSRS[tBuAla]PPI[Pen]IPPI); disulfide 1-9), the concentration for half-maximal inhibition (IC50) in assay [1] is 81.7 nM; in assay [2], 46 nM; in assay [3], 110 nM; in assay [4] it was 9 nM; in assay [5], 650 nM.

`CC[C@H](C)[C@@H]1NC(=O)[C@H](C)NC(=O)CCCCCNC(=O)[C@@H]2CCCN2C(=O)[C@H]([C@@H](C)CC)NC(=O)[C@H]2NC(=O)[C@H]([C@@H](C)CC)NC(=O)[C@@H]3CCCN3C(=O)[C@@H]3CCCN3C(=O)[C@H](CC(C)(C)C)NC(=O)[C@H](CO)NC(=O)[C@H](CCCNC(=N)N)NC(=O)[C@H](CO)NC(=O)[C@H](CSSC2(C)C)NC1=O` [Example 53, N-{3-[(6S,9S,12S,15S,18R,21S,24S,33aS,39S,42R,45S,47aS,52aS)-21,39,45-tri[(2S)-butan-2-yl]-6-(2,2-dimethylpropyl)-9,15-bis(hydroxymethyl)-24,53,53-trimethyl-5,8,11,14,17,20,23,26,33,38,41,44,47,52-tetradecaoxopentacontahydro-1H,5H-18,42-(methanodithiomethano)tripyrrolo[2,1-c:2′,1′-o:2″,1″-r][1,4,7,10,13,16,19,22,25,28,31,34,37,40]tetradecaazacyclohexatetracontin-12-yl]propyl}guanidine] (cyclo(AICSRS[tBuAla]PPI[Pen]IP[Ahx]); disulfide 3-11): the IC50 in assay [1] stood at 44.5 nM; in assay [2], 19 nM; in assay [3], 96 nM; in assay [4], 6.75 nM; in assay [5], 83.5 nM.

On to `CC[C@H](C)[C@@H]1NC(=O)CCCNC(=O)[C@H](CC(=O)O)NC(=O)[C@@H]2CCCN2C(=O)[C@H]([C@@H](C)CC)NC(=O)[C@H]2NC(=O)[C@H]([C@@H](C)CC)NC(=O)[C@@H]3CCCN3C(=O)[C@@H]3CCCN3C(=O)[C@H](CC(C)(C)C)NC(=O)[C@H](CO)NC(=O)[C@H](CCCNC(=N)N)NC(=O)[C@H](CO)NC(=O)[C@H](CSSC2(C)C)NC1=O` [Example 35], for which the IC50 in assay [1] was determined as 3.3 nM; in assay [2], 24 nM; in assay [3], 63 nM; in assay [4], 4.1 nM; in assay [5], 17 nM.

For `CC[C@H](C)[C@@H]1NC(=O)CNC(=O)[C@@H](N)CCC(=O)NC[C@@H](C(N)=O)NC(=O)[C@H](CC(=O)O)NC(=O)[C@@H]2CCCN2C(=O)[C@H]([C@@H](C)CC)NC(=O)[C@H]2NC(=O)[C@H]([C@@H](C)CC)NC(=O)[C@@H]3C[C@@H]4CCCC[C@@H]4N3C(=O)[C@@H]3CCCN3C(=O)[C@H](CC(C)C)NC(=O)[C@H](CO)NC(=O)[C@H](CCCNC(=N)N)NC(=O)[C@H](CO)NC(=O)[C@H](CSSC2(C)C)NC1=O` [Example 93] (H-EGICSRSLP[Oic]I[Pen]IPD[Dap]-NH2; lactam 1-16; disulfide 4-12), the concentration for half-maximal inhibition (IC50) stood at 274 nM in assay [1]; 68 nM in assay [2]; 410 nM in assay [3]; 35 nM in assay [4]; 45 nM in assay [5].

These data come from patent US20240010684A1, “MASP INHIBITORY COMPOUNDS AND USES THEREOF” (BAYER AKTIENGESELLSCHAFT, priority 2020, published 2024).
